Measured values taken from publication PMC6121902, “Conjugation with Dihydrolipoic Acid Imparts Caffeic Acid Ester Potent Inhibitory Effect on Dopa Oxidase Activity of Human Tyrosinase” (International Journal of Molecular Sciences, 2018).
Several values for one entry are separate records, joined by “and”; a condition that tells them apart may be missing. Equal entries are not always repeated. Where two headings read alike, the source gives them in different places.

Tests used:
HBL cells [1] = assay: MTT viability assay; format: cell-based, human; settings: 24 h; for cytotoxicity (MTT): 25 or 50 μM
Protocol: (§1) The effect of the inhibitors on cell viability was evaluated by phase contrast microscopy and by means of the 3-(4,5-dimethyl-2-thiazolyl)-2,5-diphenyl-2H-tetrazolium bromide (MTT) assay. HBL cells were treated with the compounds (25 or 50 μM) for 24 h. At the end of the incubation period, phase contrast images were taken and the MTT assay was performed to test the cytotoxicity of each compound.
(§2) Figure 4 Effect of caffeic acid derivatives on the viability of HBL cells. Cells were incubated for 24 h with the inhibitors at 25 or 50 µM. (a) Phase contrast microscopy images. Representative images are shown (n = 8) Bar size: 50 μm. (b) MTT viability assay. Cells were grown in 96-well plates to ~80% confluence in the presence or absence of the indicated compounds. After 24 h, MTT was added (1 mg/mL final concentration) and maintained in the culture media for 4 h. Cells were PBS-washed twice and solubilized in DMSO. Absorbance at 562 nm was measured and represented as a percentage of the control value. The mean ± SEM of 8 independent experiments is shown. **** p < 0.0001.
Cell viability was measured by the MTT assay. HBL cells were seeded into the wells of a 96-wells plate at a density of 10,000 cells in 200 μL cell culture media. The seeded cells were incubated for 18 h at 37 °C, then treated with the compounds (25 or 50 μM) for 24 h or left untreated. At the end of the incubation period, images were taken and the MTT assay was performed to test the cytotoxicity of the different caffeic acid derivatives.

mushroom tyrosinase [2] = system: mushroom tyrosinase; parameters: method as in PMID 31105178; settings: cited from earlier work
[3] = target: T1, tyrosinase from HBL human melanoma cells (Homo sapiens, UniProt P14679); assay: DO activity of human tyrosinase in HBL cell extracts (MBTH assay, 490 nm); format: biochemical; settings: HBL cell extracts
T1 construct: endogenous in cells; host or cells: HBL human melanoma cells (detergent-solubilized cell extract)
T1 sequence (P14679 19-529): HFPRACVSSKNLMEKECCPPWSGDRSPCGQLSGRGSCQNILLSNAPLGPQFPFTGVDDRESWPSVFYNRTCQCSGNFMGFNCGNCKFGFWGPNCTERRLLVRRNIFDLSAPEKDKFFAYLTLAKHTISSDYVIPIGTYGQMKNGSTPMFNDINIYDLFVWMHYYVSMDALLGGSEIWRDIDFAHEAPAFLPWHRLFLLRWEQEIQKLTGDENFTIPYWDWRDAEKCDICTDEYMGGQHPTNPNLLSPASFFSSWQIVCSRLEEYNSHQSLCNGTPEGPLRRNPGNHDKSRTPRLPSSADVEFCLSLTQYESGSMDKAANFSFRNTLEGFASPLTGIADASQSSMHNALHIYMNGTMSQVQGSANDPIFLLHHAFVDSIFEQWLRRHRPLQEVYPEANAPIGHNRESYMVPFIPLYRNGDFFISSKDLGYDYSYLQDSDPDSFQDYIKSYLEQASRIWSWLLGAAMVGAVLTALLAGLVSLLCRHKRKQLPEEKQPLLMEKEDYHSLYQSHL
Protocol: In further experiments, the effect of LCAME and LCA was investigated on extracts from HBL human melanoma cells expressing tyrosinase, and the inhibition of DO activity was evaluated. DO activity was determined according to Winder and Harris with some minor modifications: cell extracts were incubated with 3-methyl-2-benzothiazolinone hydrazone (MBTH) and absorbance at 490 nm was measured every 10 min for 1 h.
Cells were solubilized in 1% Igepal, 1% phenylmethylsulfonyl fluoride, 50 mM phosphate buffer (pH 6.8) and centrifuged at 2000 rpm for 5 min.
DO activity determinations were performed according to Winder and Harris with minor modifications. Briefly, cell extracts (usually 50–100 µg protein/assay) were incubated with 5 mM MBTH and 2.5 mM L-DOPA in 50 mM phosphate buffer pH 6.8 in the presence of the indicated concentrations of the compound of choice in a 96-wells plate. DO activity was measured spectrophotometrically in a microplate reader every ten minutes for one hour and was expressed as the slopes calculated with the GraphPad Prism 7 software (Linear Regression, San Diego, CA, USA).
For the analysis of kinetic parameters, the assays were run as above, using different concentrations of L-DOPA (from 0.1 to 2.0 mM) and of the inhibitor (0, 10 and 25 μM) to build the Lineweaver–Burk plot.

human tyrosinase = system: T2, human tyrosinase; assay: TH activity of human tyrosinase; format: biochemical; settings: compared with DO activity
T2 construct: endogenous in cells

mushroom tyrosinase [4] = target: mushroom tyrosinase; parameters: method as in PMID 31105178; settings: mushroom enzyme; read-out: IC50 (TH Activity); cited from earlier work
mushroom tyrosinase [5] = system: mushroom tyrosinase; parameters: method as in PMID 31105178; settings: cited from earlier work; remark: listed apart in the source
mushroom tyrosinase [6] = assay: Mushroom tyrosinase DO activity inhibition (dopachrome formation at 475 nm, L-DOPA substrate); format: biochemical; settings: 10 min pre-incubation, L-DOPA 1 mM, tyrosinase 20 U/mL, pH 6.8
Protocol: (§3) The inhibition properties of LCAME were preliminarily investigated on mushroom tyrosinase by spectrophotometric monitoring of dopachrome formation, a method which is routinely used for evaluation of the activity of potential tyrosinase inhibitors. L-DOPA was used as the substrate to test DO activity while L-tyrosine was used to test TH activity. LCAME was incubated in 50 mM phosphate buffer in the presence of mushroom tyrosinase (20 U/mL) at room temperature. After 10 min, L-DOPA or L-tyrosine (1 mM final concentration) were added and the absorbance at 475 nm was measured at different times over 10 min. For comparative purposes the effects of CAME were evaluated as well. Stock methanolic solutions of LCAME or CAME, ranging in concentration from 0.02 to 20 mM concentration were prepared dissolving a proper amount of the compound of interest in methanol. 100 μL of these solutions were added to 2 mL of 50 mM phosphate buffer at pH 6.8 (final concentrations range: 0.001–1 mM), in the presence or in the absence of 20 U/mL mushroom tyrosinase. After 10 min incubation at room temperature, 20 μL of a 100 mM solution of L-DOPA or L-tyrosine in 0.6 M HCl, were added (final concentration: 1 mM). Spectrophotometric analysis was performed by measuring the absorbance at 475 nm for 10 min at 2 min intervals. In control experiments, the reaction was run in the absence of LCAME. When required, the experiment was performed as above but adding L-DOP A soon after the addition of LCAME (0.050 μM). In separate experiments, the assay was run as above with LCAME or CAME at 100 μM, in the presence or absence of L-DOPA, and after 10 min the mixture was analyzed by HPLC.

mushroom tyrosinase [7] = assay: Mushroom tyrosinase TH activity inhibition (dopachrome formation at 475 nm, L-tyrosine substrate); format: biochemical; settings: 10 min pre-incubation, L-tyrosine 1 mM, tyrosinase 20 U/mL, pH 6.8
Protocol: as §3, with “After 10 min incubation at room temperature, 20 μL of a 100 mM solution of L-DOPA or L-tyrosine in 0.6 M HCl, were added (final concentration: 1 mM).” left out, “In control experiments, the reaction was run in the absence of LCAME. When required, the experiment was performed as above but adding L-DOP A soon after the addition of LCAME (0.050 μM).” left out

mushroom tyrosinase [8] = assay: Consumption of inhibitor by mushroom tyrosinase (substrate test, HPLC); format: biochemical; settings: 100 μM, 10 min
Protocol: Some tyrosinase inhibitors are also substrates of the enzyme and this is a critical issue because their oxidation can lead to the formation of highly reactive, cytotoxic o-quinones. To rule out this possibility, either LCAME or CAME at 100 μM were exposed to mushroom tyrosinase, in the absence of L-DOPA, and after 10 min, the reaction mixtures were analyzed by HPLC. […] HPLC analyses for determination of the consumption of CAME and LCAME in the presence of mushroom tyrosinase were performed on a Agilent 1100 binary pump instrument equipped with a UV-visible detector using an octadecylsilane-coated column, 250 mm × 4.6 mm, 5 μm particle size (Phenomenex Sphereclone ODS, Bologna, Italy) at 0.7 mL/min, using the following gradient: 0.1% formic acid (eluant a)/ methanol (eluant b): 40% b, 0–10 min; from 40 to 80% b, 47.5–52.5 min; from 80 to 40% b, 52.5–57.5 min. Detection wavelength was set at 280 nm. Stock methanolic solutions of LCAME or CAME, ranging in concentration from 0.02 to 20 mM concentration were prepared dissolving a proper amount of the compound of interest in methanol. 100 μL of these solutions were added to 2 mL of 50 mM phosphate buffer at pH 6.8 (final concentrations range: 0.001–1 mM), in the presence or in the absence of 20 U/mL mushroom tyrosinase. After 10 min incubation at room temperature, 20 μL of a 100 mM solution of L-DOPA or L-tyrosine in 0.6 M HCl, were added (final concentration: 1 mM). Spectrophotometric analysis was performed by measuring the absorbance at 475 nm for 10 min at 2 min intervals. In control experiments, the reaction was run in the absence of LCAME. When required, the experiment was performed as above but adding L-DOP A soon after the addition of LCAME ([…]). In separate experiments, the assay was run as above with LCAME or CAME at 100 μM, in the presence or absence of L-DOPA, and after 10 min the mixture was analyzed by HPLC.

HBL cells [9] = assay: Phase contrast microscopy of cell morphology; format: cell-based, human; settings: 50 μM, 24 h
Protocol: as §1, §2
Cell viability was measured by the MTT assay. HBL cells were seeded into the wells of a 96-wells plate at a density of 10,000 cells in 200 μL cell culture media. The seeded cells were incubated for 18 h at 37 °C, then treated with the compounds (25 or 50 μM) for 24 h or left untreated. […]

tyrosinase = assay: Tyrosinase expression by Western blot (αPEP7), with or without NDP-MSH; format: cell-based, human
Protocol: Control HBL cells or cells grown in the presence of CAME (25 µM) or LCAME (25 or 50 µM) were stimulated for 48 h with a potent analogue of αMSH ([Nle^4,D-Phe^7]-α-MSH (NDP-MSH), 10^−7 M). Use of the 50 μM concentration of CAME was avoided since this concentration was somewhat cytotoxic as shown above. Expression of tyrosinase was then evaluated by Western blot using a specific antibody directed against tyrosinase (αPEP7). […] However, other mechanisms such as interference with activation and/or functional coupling of the melanocortin 1 receptor responsible for αMSH actions cannot be ruled out and a complete study of these possibilities is beyond the scope of this work. Accordingly, interference of LCAME with MITF expression or activity remains speculative at this stage. In any case, this preliminary observation deserves confirmation using cultured normal human melanocytes and further mechanistic analysis, as it may further support the potential use of LCAME as a skin depigmenting agent. Indeed, LCAME may act at two different levels, on one hand by inhibiting preexisting tyrosinase by a competitive mechanism, and on the other hand by interfering with αMSH-dependent induction of tyrosinase expression.
Figure 5 Effect on tyrosinase expression of CAME (25 µM) and LCAME (25 and 50 µM). HBL melanoma cells were incubated with or without the indicated compounds and stimulated with NDP-MSH (10^−7 M). After 48 h of treatment, tyrosinase levels were compared by Western blotting, performed as described in Materials and Methods. […] For each experimental condition, the fold-increase of tyrosinase abundance upon NDP-MSH treatment relative to the corresponding control was determined by densitometric analysis (ImageJ software) and is shown below the figure.
After protein separation by SDS-PAGE, they were transferred from the gel to the membrane and immunochemical detection with anti-PEP7 was performed as previously described. Briefly, the filters were blocked for 1 h in 2% bovine serum albumin in 1% Tween 20 PBS and incubated overnight at 4 °C with primary antibodies (1:4000 dilution). The filters were washed and further incubated with peroxidase-labeled mouse anti-rabbit IgG (1:5000 dilution). Staining and detection were done with ECL Plus Western Blotting Detection System chemiluminescent substrate (Thermo Fisher Scientific, Waltham, MA, USA). Images were acquired in a Fusion Solo.6S system (Vilber-Lourmat, Marne La Vallée, France). Signal intensities were estimated with ImageJ (National Institutes of Health, Bethesda, […], USA) in independent blots, and normalized with the corresponding loading controls (obtained by staining the membranes with an anti-ERK2 antibody).

Row | IC50 ([3]; DO activity, L-DOPA 2.5 mM, read-out: IC50 (Mean ± SEM)) | inhibitory effect on DO activity ([3]; fixed concentration of 25 μM) | effect on TH activity of human tyrosinase (human tyrosinase) | IC50 (mushroom tyrosinase [6]) [µM] | IC50 (mushroom tyrosinase [7]) [µM] | consumption of the inhibitor (mushroom tyrosinase [8]; absence of L-DOPA) | consumption of the inhibitor (mushroom tyrosinase [8]; presence of L-DOPA) | cell morphology (phase contrast) (HBL cells [9]) | Structure (SMILES) | cytotoxicity (MTT) (HBL cells [1]) | effect on tyrosinase activity (mushroom tyrosinase [2]; same conditions as LCA) | nature of tyrosinase inhibition (Lineweaver–Burk plots) (mushroom tyrosinase [2]) | IC50 (mushroom tyrosinase [2]; mushroom enzyme, read-out: IC50 (DO Activity)) [µM] | IC50 (mushroom tyrosinase [4]) [µM] | substrate of tyrosinase (mushroom tyrosinase [5]) | cell viability (MTT) (HBL cells [1]; 50 μM) | NDP-MSH-mediated induction of tyrosinase expression (tyrosinase; 25 µM, NDP-MSH 10^−7 M, 48 h) | basal tyrosinase expression (tyrosinase; HBL cells, CAME 25 µM or LCAME 25 or 50 µM, Western blot)
1 |  |  |  |  |  |  |  |  | O=C(O)/C=C/c1ccc(O)c(O)c1 [CA, caffeic acid] | not cytotoxic | did not show any effect |  |  |  |  |  |  | 
2 | 76 µM and 76.2 µM | significant inhibitory effect | much smaller |  |  |  |  |  | O=C(O)/C=C/c1ccc(O)c(O)c1SCCC(S)CCCCC(=O)O (stereo not drawn) [LCA, 2-S-lipoylcaffeic acid] | not cytotoxic |  | mixed type mechanism | 3.22 ± 0.02 | 2 ± 0.1 | not to be a substrate of tyrosinase |  |  | 
3 |  |  |  | 155 ± 7 | 79 ± 7 | almost complete | extremely low | became rounded | COC(=O)/C=C/c1ccc(O)c(O)c1 [CAME, caffeic acid methyl ester, reference compound] |  |  |  |  |  |  | reduced cell viability | similarly induced | No significant changes
